Assay results taken from patent publication US11999739B2, “Antimicrobials methods of making and using the same” (BIOVERSYS AG, priority 2016, dated 2024).
Values after ≈ are worked out from the molar mass of the structure shown. Where two headings read alike, the source gives them in different places.

What was measured:
Enterobacteriaceae = test: CLSI broth microdilution MIC, multiresistant Enterobacteriaceae panel; assay type: cell-based; details: for MIC, peak of unimodal distribution: 68 Enterobacteriaceae, FIG. 1
Description: (§1) Four compounds, including Compound Nos. 120 and 162 of the present application (RX-04B and RX-04C, respectively) were tested against (i) multiresistant Enterobacteriaceae and Acinetobacter with carbapenemases; (ii) Enterobacteriaceae with MCR-1; and (iii) P. aeruginosa with altered efflux (see Tables 4 and 5). In this case, MCR-1 is relevant because its activity reduces the negative charge of lipopolysaccharides, potentially affecting binding of poly-basic molecules such as the compounds tested herein, as well as polymyxins.
(§2) MICs of the four tested compounds and comparators (amikacin, cefepime, colistin, meropenem and tigecyline) were determined by CLSI broth microdilution using pre-prepared plates (Trek Diagnostic Systems) (CLSI Approved Standard M7-A10). Carbapenemase and mcr-1 genes were detected by PCR or sequencing. Efflux levels in P. aeruginosa isolates were inferred by interpretive reading of antibiogram data.

E. coli DH10B = test: CLSI broth microdilution MIC, E. coli DH10B recipient; assay type: cell-based
Description: as §2

[1] = tested on: E. coli DH10B mcr-1 transformant; test: CLSI broth microdilution MIC, E. coli DH10B mcr-1 transformant; assay type: cell-based
Description: as §2

CPE = test: CLSI broth microdilution MIC, carbapenemase-producing Enterobacteriaceae (CPE); assay type: cell-based; details: 35/36 (97%) of CPE, FIG. 2
Description: as §1, §2

MCR-1 isolates = test: CLSI broth microdilution MIC, Enterobacteriaceae with MCR-1; assay type: cell-based; details: all MCR-1 isolates (n=14), FIG. 3
Description: as §1, §2

A. baumannii = test: CLSI broth microdilution MIC, A. baumannii; assay type: cell-based
Description: as §1, §2

P. aeruginosa = test: CLSI broth microdilution MIC, P. aeruginosa with altered efflux; assay type: cell-based
Description: as §1, §2

[2] = tested on: Staphylococcus aureus (S. aureus) 11540 strain; test: Standard microdilution MIC assay, S. aureus; assay type: cell-based
Outline: (§3)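 Broth microdilution per CLSI M7-A8 guidelines, with reference-strain quality control run in the same design; MIC determined per strain. Activity scored +/− against a 16 micrograms/mL cutoff.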

[3] = tested on: Escherichia coli strain ATCC25922; test: Standard microdilution MIC assay, E. coli; assay type: cell-based
Outline: as §3

[4] = Rat five day safety study (bodyweight gain, reticulocyte count change); assay type: in vivo; details: male Sprague-Dawley juvenile rats, n=5, once daily slow intravenous infusion for 5 days at or near maximum-tolerated dose; for BW Result: bodyweight gain; for Hematology Result: reticulocyte count change
Description: The compounds of the present disclosure were tested for safety in a multi-day dosing study in rat. Key parameters that were monitored are bodyweight gain and hematological changes, particularly changes in reticulocyte counts. Male Sprague-Dawley (CD) juvenile rats were received from Charles River with double jugular vein catheters. For each compound, n=5. […] Bodyweights were recorded daily for the first 5 days (during the dosing period), then 2 to 3 times per week thereafter. Blood was collected via a jugular vein catheter into EDTA anti-coagulated tubes for complete blood counts (CBC) on Days 0 (baseline), 3 and 7. On Day 22, blood was drawn via a cardiac puncture into EDTA coated tubes for final CBC, and serum separator tubes for the complete clinical chemistry profile. The blood that was collected into serum separator tubes was allowed to clot at room temperature for approximately 30 minutes, spun in a centrifuge at 2000 rpm, and the resulting serum was aliquoted. All samples were sent on wet ice to Charles River Labs for analysis.

[5] = Escherichia coli, read-out: MIC
[6] = Pseudomonas aeruginosa, almost half (48%) of the MICs, FIG. 5, read-out: MIC

| Compound | MIC [2] [µg/mL] | MIC [3] [µg/mL] | BW Result [4] | Hematology Result [4] | other results |
| --- | --- | --- | --- | --- | --- |
| CSc1cc(-n2cc3cc(-c4cc(CCC[C@@H](N)C5CC5)cc(Cl)c4F)[nH]c3nc2=O)ccc1[C@@H]1CCC[C@@H](CCNC(=N)N)N1 [RX-04B] | – | – | – | – | MIC, peak of unimodal distribution (Enterobacteriaceae): 1 µg/mL; MIC (E. coli DH10B; [5]): 0.5 µg/mL (≈ 0.752 µM); MIC ([1]; Escherichia coli): 0.5 µg/mL (≈ 0.752 µM) |
| C[C@H](N)CCCc1cc(OC(F)(F)F)c(F)c(-c2cc3cn(-c4ccc([C@@H]5CCC[C@@H](CCNC(=N)N)N5)cc4)c(=O)nc3[nH]2)c1 [RX-04A] | – | – | – | – | MIC (Enterobacteriaceae; 67/68 (>98%) MICs): 0.25 to 2 µg/mL (≈ 0.389 to 3.11 µM); MIC, peak of unimodal distribution (Enterobacteriaceae): 1 µg/mL; MIC (Enterobacteriaceae; MICs mostly (summary)): 1 to 2 µg/mL (≈ 1.56 to 3.11 µM); MIC relative to the MIC for E. coli ATCC 25922 (CPE): ≤ 4 fold; MIC relative to the MIC for E. coli ATCC 25922 (MCR-1 isolates): ≤ 2 fold; MIC (E. coli DH10B; [5]): 0.25 µg/mL (≈ 0.389 µM); MIC ([1]; Escherichia coli): 0.25 µg/mL (≈ 0.389 µM); MIC (A. baumannii; Acinetobacter baumannii, 7/10 values, read-out: MIC): 1 to 2 µg/mL (≈ 1.56 to 3.11 µM); MIC (A. baumannii; MICs mostly (summary)): 1 to 2 µg/mL; MIC (P. aeruginosa; MICs mostly (summary)): 1 to 4 µg/mL; MIC change in isolates with elevated efflux (P. aeruginosa; P. aeruginosa isolates with elevated efflux): not raised; MIC (P. aeruginosa; Pseudomonas aeruginosa, 19/20 (95%) isolates, read-out: MIC): 1 to 4 µg/mL (≈ 1.56 to 6.22 µM) |
| N=C(N)NCC[C@@H]1CCC[C@@H](c2ccc(-n3cc4cc(-c5cc(CCC[C@@H](N)CO)cc(Cl)c5F)[nH]c4nc3=O)cc2F)N1 [RX-04C] | – | – | – | – | MIC, peak of unimodal distribution (Enterobacteriaceae): 2 µg/mL; MIC (E. coli DH10B; [5]): 0.5 µg/mL (≈ 0.797 µM); MIC ([1]; Escherichia coli): 0.5 µg/mL (≈ 0.797 µM); MIC (P. aeruginosa; [6]): ≥ 16 µg/mL |
| CC(=N)NCC[C@@H]1CCC[C@@H](c2ccc(-n3cc4cc(-c5cc(CCC[C@H](C)N)cc(Cl)c5F)[nH]c4nc3=O)cc2)N1CCCF [Compound 264] | ≤ 16 | ≤ 16 | + (a “+” in “BW result” indicates that the rat exhibited a weight gain of 20% or more) | + (a “+” in “Hematology result” indicates indicates that the rat exhibited a reticulocyte count change of 65% or less) | – |
| C[C@H](N)CCCc1cc(Cl)c(F)c(-c2cc3cn(-c4ccc([C@@H]5CCC[C@@H](CCNC(=N)CN)N5)cc4)c(=O)nc3[nH]2)c1 [RX-04D] | – | – | – | – | MIC, peak of unimodal distribution (Enterobacteriaceae): 2 µg/mL; MIC (E. coli DH10B; [5]): 1 µg/mL (≈ 1.65 µM); MIC ([1]; Escherichia coli): 1 µg/mL (≈ 1.65 µM); relative activity among analogues (A. baumannii; 10 A. baumannii, FIG. 4): least active analogue; MIC (P. aeruginosa; [6]): ≥ 16 µg/mL |
| CCCN1[C@H](CCNC(C)=N)CCC[C@H]1c1ccc(-n2cc3cc(-c4cc(CCC[C@H](C)N)cc(Cl)c4F)[nH]c3nc2=O)cc1 [Compound 360] | ≤ 16 | ≤ 16 | + (a “+” in “BW result” indicates that the rat exhibited a weight gain of 20% or more) | + (a “+” in “Hematology result” indicates indicates that the rat exhibited a reticulocyte count change of 65% or less) | – |
| CC(=N)NCC[C@@H]1CCC[C@@H](c2ccc(-n3cc4cc(-c5cc(CCC[C@@H](N)CO)cc(Cl)c5F)[nH]c4nc3=O)cc2F)N1 [Compound 162] | ≤ 16 | ≤ 16 | − (a “−” indicates that the rat exhibited a weight gain of less than 20%) | − (a “−” indicates indicates that the rat exhibited a reticulocyte count change of greater than 65%) | – |
| CC(=N)NCC[C@@H]1CCC[C@@H](c2ccc(-n3cc4cc(-c5cc(CCC[C@H](C)N)cc(Cl)c5F)[nH]c4nc3=O)cc2)N1CCCO [Compound 290] | ≤ 16 | ≤ 16 | + (a “+” in “BW result” indicates that the rat exhibited a weight gain of 20% or more) | + (a “+” in “Hematology result” indicates indicates that the rat exhibited a reticulocyte count change of 65% or less) | – |
| CC(=N)N[C@H](C)C[C@@H]1CCC[C@@H](c2ccc(-n3cc4cc(-c5cc(CCC[C@H](C)N)cc(Cl)c5F)[nH]c4nc3=O)cc2)N1 [Compound 254] | ≤ 16 | ≤ 16 | + (a “+” in “BW result” indicates that the rat exhibited a weight gain of 20% or more) | + (a “+” in “Hematology result” indicates indicates that the rat exhibited a reticulocyte count change of 65% or less) | – |
| colistin [reference compound] | – | – | – | – | MIC (E. coli DH10B): 0.25 µg/mL; MIC ([1]; MCR-1 Transformant): 4 µg/mL |
| CC(=N)NCC[C@@H]1CNC[C@@H](c2ccc(-n3cc4cc(-c5cc(CCC[C@H](C)N)cc(Cl)c5F)[nH]c4nc3=O)cc2)N1 [Compound 50] | ≤ 16 | ≤ 16 | + (a “+” in “BW result” indicates that the rat exhibited a weight gain of 20% or more) | + (a “+” in “Hematology result” indicates indicates that the rat exhibited a reticulocyte count change of 65% or less) | – |
| COC[C@H](N)CCCc1cc(-c2cc3cn(-c4ccc([C@@H]5CCC[C@@H](CCNC(C)=N)N5)c(F)c4)c(=O)nc3[nH]2)c(F)c(C(F)(F)F)c1 [Compound 191] | ≤ 16 | ≤ 16 | + (a “+” in “BW result” indicates that the rat exhibited a weight gain of 20% or more) | + (a “+” in “Hematology result” indicates indicates that the rat exhibited a reticulocyte count change of 65% or less) | – |
| CC(=N)NCC[C@@H]1CCC[C@@H](c2ccc(-n3cc4cc(-c5cc(CCC[C@H](C)N)cc(Cl)c5F)[nH]c4nc3=O)cc2S(C)(=O)=O)N1 [Compound 117] | ≤ 16 | ≤ 16 | − (a “−” indicates that the rat exhibited a weight gain of less than 20%) | + (a “+” in “Hematology result” indicates indicates that the rat exhibited a reticulocyte count change of 65% or less) | – |
| CSc1cc(-n2cc3cc(-c4cc(CCC[C@@H](N)C5CC5)cc(Cl)c4F)[nH]c3nc2=O)ccc1[C@@H]1CCC[C@@H](CCNC(C)=N)N1 [Compound 120] | ≤ 16 | ≤ 16 | + (a “+” in “BW result” indicates that the rat exhibited a weight gain of 20% or more) | + (a “+” in “Hematology result” indicates indicates that the rat exhibited a reticulocyte count change of 65% or less) | – |
| COC[C@H](N)CCCc1cc(-c2cc3cn(-c4ccc([C@@H]5CCC[C@@H](CCNC(C)=N)N5)cc4)c(=O)nc3[nH]2)c(F)c(C(F)(F)F)c1 [Compound 190] | ≤ 16 | ≤ 16 | − (a “−” indicates that the rat exhibited a weight gain of less than 20%) | − (a “−” indicates indicates that the rat exhibited a reticulocyte count change of greater than 65%) | – |
